From the supplement of paper PMC10307832 come the findings set out here.

Holding throughout (experiment): relative viability (nuclei count vs DMSO), 5 days (fraction); higher = more cells survive
Compound in the experiment “Trametinib + Olaparib”: CC(=O)Nc1cccc(-n2c(=O)n(C3CC3)c(=O)c3c(Nc4ccc(I)cc4F)n(C)c(=O)c(C)c32)c1 [Trametinib] + O=C(c1cc(Cc2n[nH]c(=O)c3ccccc23)ccc1F)N1CCN(C(=O)C2CC2)CC1 [Olaparib] (partner 8 µM)
In outline:
(§1)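 Relative viability was taken as the ratio of nuclei in treated wells to nuclei in vehicle wells. Lung cancer cell lines in 1536-well plates received compounds by pin tool one day after seeding, either one drug alone or a fixed anchor-drug dose plus five library-drug doses (not always all listed) in √10 steps. Nuclei were counted on 4× images after 5 days of treatment, and values are medians of duplicate plates.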

Compound in experiment [1]: CN1C=C(C2=CC=CC=C21)/C=C\3/C4=C(C=CC=N4)NC3=O + CC(=O)Nc1cccc(-n2c(=O)n(C3CC3)c(=O)c3c(Nc4ccc(I)cc4F)n(C)c(=O)c(C)c32)c1 [Trametinib] (partner 0.02 µM)
In outline:
as §1

Compound in experiment [2]: CN1C=C(C2=CC=CC=C21)/C=C\3/C4=C(C=CC=N4)NC3=O + CCNC(=O)c1noc(-c2cc(C(C)C)c(O)cc2O)c1-c1ccc(CN2CCOCC2)cc1 [Luminespib] (partner 0.01 µM)
In outline: as §1

Compound in experiment [3]: CN1C=C(C2=CC=CC=C21)/C=C\3/C4=C(C=CC=N4)NC3=O + CS(=O)(=O)CCNCc1ccc(-c2ccc3ncnc(Nc4ccc(OCc5cccc(F)c5)c(Cl)c4)c3c2)o1 [Lapatinib] (partner 2 µM)
In outline:
as §1

For UMC-11, the relative viability with Trametinib + Olaparib (first compound 0.0025 µM) was 0.547; in the experiment with Trametinib + Olaparib (first compound 0.007906 µM), 0.455; with Trametinib + Olaparib (first compound 0.07906 µM), 0.303; in the experiment with Trametinib + Olaparib (first compound 0.25 µM), 0.29; in experiment [1] (first compound 0.02 µM), 0.638; in experiment [1] (first compound 0.06325 µM), 0.549. For the same cell line, the relative viability in experiment [1] (first compound 0.2 µM) stood at 0.552; in experiment [1] (first compound 0.6325 µM), 0.671; in experiment [1] (first compound 2 µM) it was 0.78; in experiment [2] (first compound 0.02 µM), 0.764; in experiment [2] (first compound 0.06325 µM), 0.943; in experiment [2] (first compound 0.2 µM), 1. Moreover, the relative viability turned out to be 1.25 in experiment [2] (first compound 0.6325 µM); 1.18 in experiment [2] (first compound 2 µM); 0.854 in experiment [3] (first compound 0.02 µM); 0.901 in experiment [3] (first compound 0.06325 µM); 0.632 in experiment [3] (first compound 0.2 µM); 0.897 in experiment [3] (first compound 0.6325 µM). Moreover, the relative viability in experiment [3] (first compound 2 µM) is 1.33.
